# Measurements published in US9233961B2, “Compounds and compositions for the treatment of parasitic diseases” (Novartis AG, priority 2013, dated 2016).
# Where two headings read alike, the source gives them in different places.
# Experiments:
# [1] = system: Leishmania donovani axenic amastigote parasites; experiment: Leishmania donovani axenic amastigote proliferation assay; type: cell-based
# Procedure: Leishmania Donovani Axenic Amastigote Proliferation Assay
# Leishmania donovani axenic amastigote parasites are grown at 37° C., 5% CO2 in media made of RPMI 1640, 4 mM L-glutamine, 20% heat inactivated FBS, 100 units/ml of penicillin and 100 μg/ml of streptomycin, 23 μM Folic Acid, 100 μM Adenosine, 22 mM D-glucose, 25 mM MES. The pH of media is adjusted to 5.5 at 37° C. using HCl. 20 μL of media is first dispensed into 384 well plates and 100 nL of the compounds of invention in DMSO are added to the plate wells. At the same time control compounds and DMSO are added to plates to serve as the positive and negative controls, respectively. 40 μL of parasite culture (9600 parasites) are then added to the plate wells. The plates are then placed into incubators. After 2 day incubation, 20 μL of Cell TiterGlo (Promega) is added to the plate wells. The luminescence signal of each well is measured using the Envision reader (Perkin Elmer). The percentage inhibition of 50%, EC50, is calculated for each of the compounds.
# [2] = system: L. donovani HU3 strain in mouse peritoneal macrophages; experiment: Assay for proliferation of Leishmania parasites in mouse peritoneal macrophages; type: cell-based, Leishmania donovani; conditions: Leishmania donovani, Peritoneal macrophage, read-out: L. donavani Macrophage EC50
# Excerpt: Assay for Proliferation of Leishmania Parasites
# The activity of a compound according to the present invention for inhibition of parasitemai can be assessed by the parasite proliferation assay. The assay measures the increase in the parasite number in the assayed plate well using a DNA intercalating dye, SYBR Green I® dye (INVITROGEN) to stain Leishmania cell nuclei. It is understood that the assays illustrate the invention without in any way limiting the scope of the invention.
# L. donovani HU3 strain is propagated by infecting BALB/c mice through tail vein injection with 10^7 Leishmania parasites. Infected mice are allowed to develop infection during 9-11 weeks post-infection. During this time, the parasites accumulate in the infected mouse spleens to large numbers, and the infected mice serve as the source of parasites for the in vitro measurement of compound efficacies. To assay a compound for anti-leishmanial activity, peritoneal macrophages isolated from non-infected BALB/c mice are seeded into 384-well plates at density 2×10^4 macrophages per well in […] of medium (RPMI 1640, 10% […], 10 mM HEPES, 1 mM sodium pyruvate, 1% Pen/Strep). Subsequently, the seeded plates are placed into an incubator set to maintain 37° C. temperature and atmosphere with 5% CO2. The next day, Leishmania parasites are isolated from the spleens of mice infected for 9-11 weeks and 4×10^5 isolated parasites in […] of the above media are added to each plate well. Plates are then returned into incubators and infection is allowed to proceed for 24 hours. After the infection of macrophages is completed, […] of compounds of the invention in the above medium, which also contains 5% DMSO, are added to plate wells containing infected macrophages. At the same time control compounds (miltefosine and amphotericin B) and DMSO are added to plates to serve as the positive and negative controls, respectively. After the compound addition, the plates are returned into incubator and cells infected with parasites are cultured for 5 days. At the end of cultivation, […] of 8% paraformaldehyde is added to plate wells and incubated for 15 min at room temperature. Following the incubation, the paraformaldehyde from plate wells is aspirated, and […] of PBS containing 0.2% Triton X-100 is added to wells. After 15 min incubation, the solution is aspirated from wells again, and replaced with SybrGreen Dye solution in PBS (1:125,000 dilution). Infected cells are imaged with Evotec Opera high-content microscope, and the number of parasites in well is determined by counting parasite nuclei visualized by staining with SybrGreen dye. The percentage inhibition of 50%, EC50, is calculated for each compound.
# The inhibitory efficacy of the compounds of the invention in delaying the proliferation of L. donovani in mouse peritoneal macrophages is provided in Table I, infra.
# [3] = axenic amastigotes in vitro, read-out: L. donovani amastigotes EC50
Compound,"EC50 [1, 3] [µM]",EC50 [2] [µM],"EC50 ([1]; 48 h, L. donovani axenic amastigotes, 2 day incubation, Cell TiterGlo luminescence, read-out: EC50) [µM]"
Cc1cnc2nc(-c3cc(NC(=O)Cc4cc(C)no4)ccc3Cl)[nH]c2c1 [Compound 88],> 25,> 50,–
Cc1cnc2nc(-c3cc(NC(=O)c4ccc(F)o4)ccc3Cl)[nH]c2c1 [Compound 90],1.88,8,–
Cc1cnc2nc(-c3cc(NC(=O)c4ccns4)ccc3Cl)[nH]c2c1 [Compound 91],3.2,5.6,–
Cc1cnc2nc(-c3cc(NC(=O)c4ccnnc4)ccc3Cl)[nH]c2c1 [Compound 92],> 20,> 50,–
CCOc1cc(C(=O)Nc2ccc(Cl)c(-c3nc4ncc(C)cc4[nH]3)c2)ccn1 [Compound 93],> 25,> 35.5,–
Cc1cnc2nc(-c3cc(NC(=O)c4ccc(CN(C)C)o4)ccc3Cl)[nH]c2c1 [Compound 94],> 25,4.9,–
Cc1cnc2nc(-c3cc(NC(=O)c4cncc(C#N)c4)ccc3Cl)[nH]c2c1 [Compound 101],13.5,> 50,–
Cc1cncc(C(=O)Nc2ccc(Cl)c(-c3nc4ncc(C)cc4[nH]3)c2)c1 [Compound 102],16.1,11.7,–
Cc1cnc2nc(-c3cc(NC(=O)C4CCO4)ccc3Cl)[nH]c2c1 (stereo not drawn) [Compound 103],> 25,> 50,–
Cc1cnc2nc(-c3cc(NC(=O)c4ncco4)ccc3Cl)[nH]c2c1 [Compound 104],> 25,> 50,–
Cc1cnc2nc(-c3cc(NC(=O)c4c(C)noc4C)ccc3Cl)[nH]c2c1 [Compound 105],> 25,> 50,–
Cc1cnc2nc(-c3cc(NC(=O)c4cncc(Cl)n4)ccc3Cl)[nH]c2c1 [Compound 127],1.2,4.8,–
COc1cc(C(=O)Nc2ccc(Cl)c(-c3nc4ncc(C)cc4[nH]3)c2)ccn1 [Compound 129],> 25,27.4,–
Cc1cnc2nc(-c3cc(NC(=O)c4occc4C)ccc3Cl)[nH]c2c1 [Compound 130],2.01,15.7,–
Cc1cnc2nc(-c3cc(NC(=O)CCCN4CCOCC4)ccc3Cl)[nH]c2c1 [Compound 132],> 25,> 50,–
Cc1cnc2nc(-c3cc(NC(=O)c4ccc(S(C)(=O)=O)nc4)ccc3Cl)[nH]c2c1 [Compound 136],> 25,> 50,–
CSc1nccc(C(=O)Nc2ccc(Cl)c(-c3nc4ncc(C)cc4[nH]3)c2)n1 [Compound 137],> 25,15.9,–
Cc1cnc2nc(-c3cc(NC(=O)c4ccc(C(F)(F)F)cc4)ccc3Cl)[nH]c2c1 [Compound 153],> 25,14.9,–
Cc1cnc2nc(-c3cc(NC(=O)c4ccnc([S+](C)[O-])n4)ccc3Cl)[nH]c2c1 (stereo not drawn) [Compound 154],> 24.1,> 50,–
Cc1cnc2nc(-c3cc(NC(=O)c4nc(C)oc4C(F)(F)F)ccc3Cl)[nH]c2c1 [Compound 176],> 25,> 50,–
Cc1cnc2nc(-c3cc(NC(=O)C(O)c4ccc(C(F)(F)F)cc4)ccc3Cl)[nH]c2c1 (stereo not drawn) [Compound 182],> 25,> 50,–
Cc1cnc2nc(-c3cc(NC(=O)CO)ccc3Cl)[nH]c2c1 [Compound 183],> 25,> 50,–
Cc1cnc2nc(-c3cc(NC(=O)c4ccnc(C)c4)ccc3Cl)[nH]c2c1 [Compound 188],2.26,11.6,–
Cc1cnc2nc(-c3cc(NC(=O)c4ccnc(C)c4C)ccc3Cl)[nH]c2c1 [Compound 189],> 25,> 28.9,–
Cc1cnc2nc(-c3cc(NC(=O)c4ccc(OC(F)(F)F)cc4)ccc3Cl)[nH]c2c1 [Compound 210],> 22,> 37.7,–

Compound,"EC50 [1, 3] [µM]",EC50 [2] [µM],"EC50 ([1]; 48 h, L. donovani axenic amastigotes, 2 day incubation, Cell TiterGlo luminescence, read-out: EC50) [µM]"
COc1ccc(C(=O)Nc2ccc(Cl)c(-c3nc4ncc(C)cc4[nH]3)c2)cc1 [Compound 211],> 22.8,> 27.9,–
[2H]C([2H])([2H])C([2H])([2H])OC(=O)Nc1ccc(Cl)c(-c2nc3ncc(C)cc3[nH]2)c1 [Compound 215],13.3,18.1,–
Cc1cnc2nc(-c3cc(NC(=O)N4CC[C@@H](F)C4)ccc3Cl)[nH]c2c1 [Compound 234],2.03,9.7,–
Cc1cnc2nc(-c3cc(NC(=O)N4CC[C@H](F)C4)ccc3Cl)[nH]c2c1 [Compound 235],3.5,8.8,–
Cc1cnc2nc(-c3cc(NC(=O)Nc4ccc(C(F)(F)F)cc4)ccc3Cl)[nH]c2c1 [Compound 248],> 25,23.1,–
Cc1cnc2nc(-c3cc(NC(=O)CCN)ccc3F)[nH]c2c1 [Compound 268],> 25,> 50,–
Cc1cnc2nc(-c3cc(NC(=O)c4ccc(OCCN(C)C)cc4)ccc3F)[nH]c2c1 [Compound 269],> 25,> 50,–
Cc1cnc2nc(-c3cc(NC(=O)c4ccno4)ccc3F)[nH]c2c1 [Compound 270],20,> 50,–
Cc1cnc2nc(-c3cc(NC(=O)[C@H]4C[C@@H](O)CN4)ccc3F)[nH]c2c1 [Compound 271],> 25,> 50,–
CC(=O)Nc1ccc(F)c(-c2nc3ncc(C)cc3[nH]2)c1 [Compound 272],> 25,> 50,–
Cc1cnc2nc(-c3cc(NC(=O)[C@@H]4CCCN4)ccc3F)[nH]c2c1 [Compound 273],> 25,> 50,–
Cc1cnc2nc(-c3cc(NC(=O)c4cc5ccccn5n4)ccc3F)[nH]c2c1 [Compound 274],17,26.7,–
Cc1cnc2nc(-c3cc(NC(=O)CCCN(C)C)ccc3F)[nH]c2c1 [Compound 275],> 25,> 50,–
CN(C)Cc1ccc(C(=O)Nc2ccc(Cl)c(-c3nc4ncc(C(F)(F)F)cc4[nH]3)c2)o1 [Compound 277],> 25,15.2,–
O=C(Nc1ccc(Cl)c(-c2nc3ncc(C(F)(F)F)cc3[nH]2)c1)c1ccccc1Cl [Compound 278],> 25,3.8,–
N#Cc1ccc(C(=O)Nc2ccc(Cl)c(-c3nc4ncc(C(F)(F)F)cc4[nH]3)c2)o1 [Compound 281],1.98,6.3,–
O=C(Nc1ccc(Cl)c(-c2nc3ncc(C(F)(F)F)cc3[nH]2)c1)c1cncc(F)c1 [Compound 283],4,11.4,–
O=C(Nc1ccc(Cl)c(-c2nc3ncc(C(F)(F)F)cc3[nH]2)c1)c1ccc(F)o1 [Compound 284],0.7,4.1,–
O=C(Nc1ccc(Cl)c(-c2nc3ncc(C(F)(F)F)cc3[nH]2)c1)c1cnccn1 [Compound 285],0.73,5,–
CC(C)OC(=O)Nc1ccc(Cl)c(-c2nc3ncc(C#N)cc3n2C(=O)OC(C)C)c1 [Compound 288],1.59,0.13,–
CCOC(=O)Nc1ccc(Cl)c(-c2nc3ncc(C#N)cc3[nH]2)c1 [Compound 289],4.2,8.1,–
COC(=O)Nc1ccc(Cl)c(-c2nc3ncc(C#N)cc3[nH]2)c1 [Compound 290],15.6,17.4,–
"CNc1ccc(-c2cnc3nc(-c4cc(NC(=O)N5CCCC5)ccc4Cl)[nH]c3c2)cc1 [Compound 292, N-(4-chloro-3-{6-[4-(methylamino)phenyl]-1H-imidazo[4,5-b]pyridin-2-yl}phenyl)pyrrolidine-1-carboxamide]",0.08,0.17,~0.08
O=C(Nc1ccc(Cl)c(-c2nc3ncc(-c4ccc(F)cc4)cc3[nH]2)c1)N1CCCC1 [Compound 293],0.38,2.47,–
